# Measurements: patent US6274715A, “Tricyclic erythromycin derivatives” (priority 1997, dated 2001)
# Like-named read-outs stand apart in the source and are kept apart here.
# Experiments:
# Assay type in all cases: cell-based
# ESCHERICHIA COLI DC-2 = assay: In vitro antibacterial activity, MIC, BHI agar dilution
# PSEUDOMONAS CEPACIA 296I = assay: as above; settings: P. cepacia 296I, unit assumed
# [1] = tested on: PSEUDOMONAS AERUGINOSA K799/61; assay: as above
# [2] = tested on: STAPHYLOCOCCUS AUREUS NCTC10649M; assay: as above; settings: S. aureus NCTC10649M
# [3] = tested on: PROVIDENCIA STUARTII CMX 640; settings: P. stuartii CMX 640; BHI agar; unit assumed
# [4] = tested on: STAPHYLOCOCCUS AUREUS CMX 642A; assay: In vitro antibacterial activity, MIC, BHI agar dilution; settings: S. aureus CMX 642A
# ESCHERICHIA COLI SS = assay: as above; settings: E. coli SS, unit assumed
# [5] = tested on: STAPHYLOCOCCUS AUREUS CMX 553; assay: as above
# ESCHERICHIA COLI JUHL = settings: E. coli JUHL; BHI agar; unit assumed
# EN[…] ATCC 8043 = assay: In vitro antibacterial activity, MIC, BHI agar dilution; settings: E. faecium ATCC 8043, unit assumed
# Method in brief: (§1)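 BHI agar dilution, 12 plates; inoculum 1:100 (1:10 slow-growing strains), Steers replicator; 35-37° C, 20-24 h. MIC = lowest conc. with no growth/slight haze/sparse colonies vs growth control, visual read. Erythromycin A reference plate.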
# STR[…] 508 = assay: as above
# Method in brief: as §1
# M[…] ATCC 9341 = assay: as above
# Method in brief: as §1
# M[…] ATCC 4698 = assay: as above
# Method in brief: as §1
# [6] = tested on: STREPTOCOCCUS PYOGENES PIU 2548; assay: as above
# [7] = tested on: STAPHYLOCOCCUS EPIDERMIDIS 3519; settings: S. epidermidis 3519; BHI agar; unit assumed
# [8] = tested on: KLEBSIELLA PNEUMONIAE ATCC 8045; assay: In vitro antibacterial activity, MIC, BHI agar dilution
# CANDIDA ALBICANS CCH 442 = assay: as above; settings: C. albicans CCH 442, unit assumed
# [9] = tested on: STREPTOCOCCUS PYOGENES 930; assay: as above; settings: S. pyogenes 930, unit assumed
# [10] = tested on: STAPHYLOCOCCUS AUREUS 1775; assay: as above; settings: S. aureus 1775, unit assumed
# [11] = tested on: PSEUDOMONAS AERUGINOSA DPHD-5263; assay: as above; settings: P. aeruginosa DPHD-5263, unit assumed
# [12] = tested on: STAPHYLOCOCCUS AUREUS ATCC 6538P; assay: as above; settings: S. aureus ATCC 6538P, 35-37° C., 20 to 24 hours, unit assumed
# [13] = tested on: ACINETOBACTER CALCOACETICUS CMX 669; assay: as above; settings: A. calcoaceticus CMX 669, unit assumed
# [14] = tested on: PSEUDOMONAS AERUGINOSA 5007; assay: as above
# ESCHERICHIA COLI H560 = assay: as above; settings: E. coli H560, unit assumed
# [15] = tested on: ENTEROBACTER AEROGENES ATCC 13048; assay: as above
# [16] = tested on: MYCOBACTERIUM SMEGMATIS ATCC 114; assay: as above; settings: M. smegmatis ATCC 114, unit assumed
# [17] = tested on: STAPHYLOCOCCUS AUREUS A5177; assay: as above; settings: S. aureus A5177, unit assumed
# [18] = tested on: PSEUDOMONAS AERUGINOSA DPHD-2862; assay: as above; settings: P. aeruginosa DPHD-2862, unit assumed
# [19] = tested on: PSEUDOMONAS AERUGINOSA BMH10; assay: as above
# [20] = tested on: PSEUDOMONAS AERUGINOSA K799/WT; assay: as above; settings: P. aeruginosa K799/WT
# [21] = tested on: STAPHYLOCOCCUS AUREUS A-5278; assay: as above; settings: S. aureus A-5278, unit assumed
# ESCHERICHIA COLI KNK 437 = settings: E. coli KNK 437, BHI agar, unit assumed
# [22] = tested on: STREPTOCOCCUS PYOGENES EES61; assay: In vitro antibacterial activity, MIC, BHI agar dilution; settings: S. pyogenes EES61, unit assumed
# [23] = tested on: STREPTOCOCCUS BOVIS A-5169; assay: as above
# [24] = P. aeruginosa K799/61, unit assumed
# [25] = S. aureus CMX 553, unit assumed
# [26] = S. agalactiae CMX 508, unit assumed
# [27] = M. luteus ATCC 9341, unit assumed
# [28] = M. luteus ATCC 4698, unit assumed
# [29] = S. pyogenes PIU 2548, unit assumed
# [30] = K. pneumoniae ATCC 8045, unit assumed
# [31] = P. aeruginosa 5007, unit assumed
# [32] = E. aerogenes ATCC 13048, unit assumed
# [33] = P. aeruginosa BMH10, unit assumed
SMILES,"MIC (ESCHERICHIA COLI DC-2; E. coli DC-2, unit assumed)",MIC (PSEUDOMONAS CEPACIA 296I),"MIC [1, 24]",MIC [3],MIC ([4]; unit assumed),MIC (ESCHERICHIA COLI SS),"MIC [5, 25]",MIC (ESCHERICHIA COLI JUHL),MIC (EN[…] ATCC 8043),MIC (M[…] ATCC 9341; [27]),MIC (M[…] ATCC 4698; [28]),MIC (CANDIDA ALBICANS CCH 442),MIC [10],MIC [11],MIC [13],MIC (ESCHERICHIA COLI H560),MIC [17],MIC [18],MIC [21],MIC [22],also measured
CC[C@H]1OC(=O)[C@H](C)C(=O)[C@H](C)[C@@H](O[C@@H]2O[C@H](C)C[C@H](N(C)C)[C@H]2O)[C@](C)(OC)C[C@@H](C)C2=N[C@@H]3CCCC[C@@H]3N3C(=O)O[C@@]1(C)[C@H]3[C@H]2C [Example 13],100 µg/mL,> 100 µg/mL,3.1 µg/mL,> 100 µg/mL,0.78 µg/mL,0.39 µg/mL,0.78 µg/mL,50 µg/mL,0.1 µg/mL,0.2 µg/mL,0.78 µg/mL,3.1 µg/mL,> 100 µg/mL,> 100 µg/mL,> 100 µg/mL,50 µg/mL,0.78 µg/mL,> 100 µg/mL,> 100 µg/mL,0.02 µg/mL,"MIC ([2]; unit assumed): 0.78 µg/mL; MIC (STR[…] 508; [26]): 0.02 µg/mL; MIC [6, 29]: 0.2 µg/mL; MIC [7]: 0.78 µg/mL; MIC [8, 30]: 100 µg/mL; MIC [9]: > 100 µg/mL; MIC [12]: 0.78 µg/mL; MIC [14, 31]: > 100 µg/mL; MIC [15, 32]: 100 µg/mL; MIC [16]: 0.39 µg/mL; MIC [19, 33]: > 100 µg/mL; MIC ([20]; unit assumed): > 100 µg/mL; MIC (ESCHERICHIA COLI KNK 437): 100 µg/mL"
CC[C@H]1OC(=O)[C@H](C)C(=O)[C@H](C)[C@@H](O[C@@H]2O[C@H](C)C[C@H](N(C)C)[C@H]2O)[C@](C)(OC)C[C@@H](C)C2=N[C@@H]3CN(C(=O)OCc4ccccc4)C[C@@H]3N3C(=O)O[C@@]1(C)[C@H]3[C@H]2C [Example 20],> 100 µg/mL,> 100 µg/mL,6.2 µg/mL,> 100 µg/mL,1.56 µg/mL,3.1 µg/mL,1.56 µg/mL,> 100 µg/mL,0.39 µg/mL,0.39 µg/mL,0.78 µg/mL,> 100 µg/mL,> 100 µg/mL,> 100 µg/mL,100 µg/mL,100 µg/mL,0.78 µg/mL,> 100 µg/mL,> 100 µg/mL,0.005 µg/mL,"MIC (STR[…] 508; [26]): 0.1 µg/mL; MIC [6, 29]: 0.78 µg/mL; MIC [7]: 0.78 µg/mL; MIC [8, 30]: > 100 µg/mL; MIC ([23]; S. bovis A-5169, unit assumed): 0.1 µg/mL; MIC [9]: > 100 µg/mL; MIC [14, 31]: > 100 µg/mL; MIC [15, 32]: > 100 µg/mL; MIC [16]: 3.1 µg/mL; MIC [19, 33]: > 100 µg/mL; MIC ([20]; unit assumed): > 100 µg/mL; MIC (ESCHERICHIA COLI KNK 437): > 100 µg/mL"
CC[C@H]1OC(=O)[C@H](C)C(=O)[C@H](C)[C@@H](O[C@@H]2O[C@H](C)C[C@H](N(C)C)[C@H]2O)[C@](C)(OC)C[C@@H](C)C2=N[C@H](COCc3ccc(OC)cc3)CN3C(=O)O[C@@]1(C)[C@H]3[C@H]2C [Example 90],> 100 µg/mL,> 100 µg/mL,6.2 µg/mL,> 100 µg/mL,0.39 µg/mL,0.78 µg/mL,0.39 µg/mL,> 100 µg/mL,0.02 µg/mL,0.1 µg/mL,0.78 µg/mL,> 100 µg/mL,> 100 µg/mL,> 100 µg/mL,100 µg/mL,50 µg/mL,0.39 µg/mL,> 100 µg/mL,> 100 µg/mL,≤ 0.005 µg/mL,"MIC ([2]; unit assumed): 0.78 µg/mL; MIC (STR[…] 508; [26]): 0.02 µg/mL; MIC [6, 29]: 0.78 µg/mL; MIC [7]: 0.39 µg/mL; MIC [8, 30]: > 100 µg/mL; MIC [12]: 0.39 µg/mL; MIC [14, 31]: > 100 µg/mL; MIC [15, 32]: > 100 µg/mL; MIC [16]: 0.78 µg/mL; MIC [19, 33]: > 100 µg/mL; MIC ([20]; unit assumed): > 100 µg/mL; MIC (ESCHERICHIA COLI KNK 437): > 100 µg/mL"
CC[C@H]1OC(=O)[C@H](C)C(=O)[C@H](C)[C@@H](O[C@@H]2O[C@H](C)C[C@H](N(C)C)[C@H]2O)[C@](C)(OC)C[C@@H](C)C2=NC3CN(CCCc4ccccc4)CC3N3C(=O)O[C@@]1(C)[C@H]3[C@H]2C (some centres unmarked) [Example 111],–,25 µg/mL,–,> 100 µg/mL,–,0.39 µg/mL,–,100 µg/mL,0.1 µg/mL,–,–,0.39 µg/mL,> 100 µg/mL,> 100 µg/mL,> 100 µg/mL,50 µg/mL,0.2 µg/mL,> 100 µg/mL,> 100 µg/mL,0.02 µg/mL,"MIC (ESCHERICHIA COLI DC-2; E. coli DC-2, listed as Ex 111, unit assumed): 100 µg/mL; MIC ([1]; P. aeruginosa K799/61, listed as Ex 111, unit assumed): 50 µg/mL; MIC ([2]; listed as Ex 111, unit assumed): 0.2 µg/mL; MIC ([4]; listed as Ex 111, unit assumed): 0.39 µg/mL; MIC ([5]; S. aureus CMX 553, listed as Ex 111, unit assumed): 0.2 µg/mL; MIC (STR[…] 508; S. agalactiae CMX 508, listed as Ex 111, unit assumed): 0.05 µg/mL; MIC (M[…] ATCC 9341; M. luteus ATCC 9341, listed as Ex 111, unit assumed): 0.05 µg/mL; MIC (M[…] ATCC 4698; M. luteus ATCC 4698, listed as Ex 111, unit assumed): 0.39 µg/mL; MIC ([6]; S. pyogenes PIU 2548, listed as Ex 111, unit assumed): 0.39 µg/mL; MIC ([8]; K. pneumoniae ATCC 8045, listed as Ex 111, unit assumed): > 100 µg/mL; MIC ([23]; S. bovis A-5169, listed as Ex 111, unit assumed): 0.01 µg/mL; MIC [9]: 50 µg/mL; MIC [12]: 0.2 µg/mL; MIC ([14]; P. aeruginosa 5007, listed as Ex 111, unit assumed): 100 µg/mL; MIC ([15]; E. aerogenes ATCC 13048, listed as Ex 111, unit assumed): > 100 µg/mL; MIC ([19]; P. aeruginosa BMH10, listed as Ex 111, unit assumed): > 100 µg/mL; MIC ([20]; listed as Ex 111, unit assumed): 1.56 µg/mL; MIC (ESCHERICHIA COLI KNK 437; listed as Ex 111): > 100 µg/mL"
CCC1OC(=O)C(C)C(=O)C(C)C(OC2OC(C)CC(N(C)C)C2O)C(C)(OC)CC(C)C2=NCC(CSc3ccccc3)(CN(C)Cc3ccccc3)N3C(=O)OC1(C)C3C2C (centres unmarked) [Example 133],> 100 µg/mL,> 100 µg/mL,12.5 µg/mL,> 100 µg/mL,1.56 µg/mL,12.5 µg/mL,1.56 µg/mL,> 100 µg/mL,0.1 µg/mL,0.2 µg/mL,1.56 µg/mL,50 µg/mL,25 µg/mL,> 100 µg/mL,> 100 µg/mL,> 100 µg/mL,0.78 µg/mL,> 100 µg/mL,25 µg/mL,0.02 µg/mL,"MIC ([2]; unit assumed): 1.56 µg/mL; MIC [6, 29]: 1.56 µg/mL; MIC [7]: 1.56 µg/mL; MIC [8, 30]: > 100 µg/mL; MIC [9]: 6.2 µg/mL; MIC [12]: 0.78 µg/mL; MIC [14, 31]: > 100 µg/mL; MIC [15, 32]: > 100 µg/mL; MIC [16]: 0.78 µg/mL; MIC [19, 33]: > 100 µg/mL; MIC ([20]; unit assumed): > 100 µg/mL; MIC (ESCHERICHIA COLI KNK 437): > 100 µg/mL"
